Consider twelve compounds from ChEMBL document CHEMBL1138163, “Potent 2-[(pyrimidin-4-yl)amine}-1,3-thiazole-5-carbonitrile-based inhibitors of VEGFR-2 (KDR) kinase” (Bioorg Med Chem Lett, 2006).

Data set [1] concerns the target Voltage-gated inwardly rectifying potassium channel KCNH2 (Homo sapiens, UniProt Q12809). The experiment in a line: Displacement of [3H]dofetilide from human ERG.
Data set [2] in a line: Half life in Beagle dog at 0.25 mg/kg, iv. Type of data set: ADME, organism-based, Canis lupus familiaris. More on the design: dose 0.25 mg/kg, route intravenous. To be noted: in vivo.
Data set [3] in a line: Volume of distribution in Beagle dog at 0.25 mg/kg, iv. The class given is ADME, organism-based, Canis lupus familiaris. The arrangement: dose 0.25 mg/kg, route intravenous. To be noted: in vivo, read-out: Vdss.
The next data set deals with Canis familiaris. The experiment in a line: AUC in Beagle dog at 0.25 mg/kg, iv. Type of data set: ADME, organism-based, Canis lupus familiaris, Plasma. More on the design: dose 0.25 mg/kg, route intravenous. The following applies: in vivo.
Data set [4] in a line: Clearance in rhesus monkey at 1 mg/kg, iv and 1 mg/kg, po. The class given is ADME, organism-based, Macaca mulatta. To be noted: in vivo.
The nature of data set [5]: Volume of distribution in rhesus monkey at 1 mg/kg, iv and 1 mg/kg, po. The class given is ADME, organism-based, Macaca mulatta. The following applies: in vivo, read-out: Vdss.
Data set [6] in a line: Volume of distribution in dog at 1 mg/kg, iv and 1 mg/kg, po. The following applies: in vivo, read-out: Vdss. Type of data set: ADME, organism-based, Canis lupus familiaris.
Data set [7] is described as follows: Oral bioavailability in dog at 1 mg/kg, po. The class given is ADME, organism-based, Canis lupus familiaris. The following applies: in vivo.
Data set [8] in a line: Oral bioavailability in rat at 10 mg/kg, po. The class given is ADME, organism-based. To be noted: in vivo.
The nature of data set [9]: Oral bioavailability in rhesus monkey at 1 mg/kg, po. The class given is ADME, organism-based, Macaca mulatta. The following applies: in vivo.
Data set [10] in a line: Volume of distribution in rat at 2 mg/kg, iv and 10 mg/kg, po. To be noted: in vivo, read-out: Vdss. Type of data set: ADME, organism-based.
The nature of data set [11]: Clearance in rat at 2 mg/kg, iv and 10 mg/kg, po. Type of data set: ADME, organism-based. To be noted: in vivo.
The nature of data set [12]: Clearance in dog at 1 mg/kg, iv and 1 mg/kg, po. The class given is ADME, organism-based, Canis lupus familiaris. To be noted: in vivo.

Chain of Voltage-gated inwardly rectifying potassium channel KCNH2 (Q12809 whole entry): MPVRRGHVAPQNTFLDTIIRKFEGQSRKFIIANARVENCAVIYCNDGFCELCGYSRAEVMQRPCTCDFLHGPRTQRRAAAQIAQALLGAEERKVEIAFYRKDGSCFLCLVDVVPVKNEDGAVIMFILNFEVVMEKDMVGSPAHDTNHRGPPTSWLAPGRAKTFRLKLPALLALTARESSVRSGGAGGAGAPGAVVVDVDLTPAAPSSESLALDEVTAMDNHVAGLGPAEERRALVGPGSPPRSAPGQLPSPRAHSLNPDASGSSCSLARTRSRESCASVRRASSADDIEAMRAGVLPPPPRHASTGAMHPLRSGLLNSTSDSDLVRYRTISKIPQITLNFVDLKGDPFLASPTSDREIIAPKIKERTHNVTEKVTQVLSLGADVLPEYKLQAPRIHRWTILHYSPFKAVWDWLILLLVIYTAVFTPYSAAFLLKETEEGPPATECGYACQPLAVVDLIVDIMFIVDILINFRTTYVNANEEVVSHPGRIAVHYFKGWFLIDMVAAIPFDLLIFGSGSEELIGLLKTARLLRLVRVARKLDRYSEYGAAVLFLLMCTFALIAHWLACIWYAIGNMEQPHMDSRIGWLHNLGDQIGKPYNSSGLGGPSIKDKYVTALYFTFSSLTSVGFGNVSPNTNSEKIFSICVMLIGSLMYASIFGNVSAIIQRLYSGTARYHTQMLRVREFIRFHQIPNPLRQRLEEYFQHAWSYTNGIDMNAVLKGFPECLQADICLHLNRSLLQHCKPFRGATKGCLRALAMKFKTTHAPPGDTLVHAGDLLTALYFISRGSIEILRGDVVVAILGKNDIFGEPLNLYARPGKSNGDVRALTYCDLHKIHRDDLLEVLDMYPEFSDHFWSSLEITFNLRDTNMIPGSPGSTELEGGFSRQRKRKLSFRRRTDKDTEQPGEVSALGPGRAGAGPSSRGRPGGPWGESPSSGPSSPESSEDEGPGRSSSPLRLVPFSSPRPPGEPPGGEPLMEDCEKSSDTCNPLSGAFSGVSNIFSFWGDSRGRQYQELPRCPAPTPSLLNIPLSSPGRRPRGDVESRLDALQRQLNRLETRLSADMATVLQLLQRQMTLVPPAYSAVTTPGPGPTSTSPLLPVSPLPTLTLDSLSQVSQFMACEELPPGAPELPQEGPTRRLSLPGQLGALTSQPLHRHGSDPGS

With `CN1CCN(c2cc(Nc3ncc(C#N)s3)ncn2)CC1`, in [1], the Activity was found to be 0.923 µM.
Compound `COCCN1CCN(c2cc(Nc3ncc(C#N)s3)ncn2)CC1` had a half-life in data set [2] of 2 h. Besides, in [3], the Vd was determined as 1.31 L/kg. For the same compound, the AUC in the data set on Canis familiaris was 4.81 µM·h.
In data set [2], `N#Cc1cnc(Nc2cc(N3CCN(CCN4CCCC4)CC3)ncn2)s1` gave a half-life of 23 h. In addition, the Vd in [3] was 14.1 L/kg. In the data set with Canis familiaris, this compound registered an area under the curve (AUC) of 6.07 µM·h. Besides, in data set [1], the Activity amounted to 0.383 µM.
As for `N#Cc1cnc(Nc2ccnc(N)n2)s1`, in [1], the Activity was above 10 µM.
The compound `N#Cc1cnc(Nc2ccncn2)s1` gave an Activity in data set [1] of 2.932 µM.
Take `N#Cc1cnc(Nc2cc(N3CCCC(N)CC3)ncn2)s1` (stereo not given): the Activity in data set [1] worked out at 1.012 µM.
For `N#Cc1cnc(Nc2cc(N3CCN(CCN4CCOCC4)CC3)ncn2)s1`, the clearance in data set [4] worked out at 22.7 mL/min/kg; in data set [11], 38.7 mL/min/kg; in data set [12], 4.11 mL/min/kg. In addition, the half-life in data set [2] was 10.5 h. For the same compound, the Vd in data set [5] worked out at 10.1 L/kg; in data set [6], 2.72 L/kg; in data set [3], 2.4 L/kg; in [10], 3.32 L/kg. The results for the bioavailability in data set [7], in data set [8] and in data set [9] were 51%, above 99% and 54%, respectively. In the data set with Canis familiaris, the AUC worked out at 10.2 µM·h. Moreover, the Activity in data set [1] came to 5 µM.
In turn, `N#Cc1cnc(Nc2cc(N3CCCNCC3)ncn2)s1` had an Activity in [1] of 2.951 µM.
In turn, `CC(=O)N1CCN(c2cc(Nc3ncc(C#N)s3)ncn2)CC1` had an Activity in data set [1] of 3.291 µM.
Take `N#Cc1cnc(Nc2cc(N3CCN(CCCN4CCOCC4)CC3)ncn2)s1`: the half-life in data set [2] was 7.97 h. Further, in data set [3], the Vd came to 14.8 L/kg. The AUC with Canis familiaris is 3.08 µM·h. This compound also gave an Activity in data set [1] of 4.003 µM.
Take `N#Cc1cnc(Nc2cc(N)ncn2)s1`: the Activity in data set [1] was above 10 µM.
In data set [2], `N#Cc1cnc(Nc2cc(N3CCC(N)CC3)ncn2)s1` gave a half-life of 1.34 h. Besides, the Vd in data set [3] was 3.65 L/kg. The compound also had an AUC in the data set on Canis familiaris of 1.91 µM·h. Further, the Activity in [1] worked out at 6.643 µM.
